Data published in PMC4457826 (PLoS Pathogens, 2015).

How the values were obtained:
[1] = tested on: USP7-NTD; test: Fluorescence polarization, USP7-NTD; type: binding, human; settings: FITC peptide 40 nM, protein up to 200 μM
Description: (§1) USP7 proteins were titrated (0 to 200 μM) with N-terminally labeled FITC-ICP0, FITC-GMPS or FITC-UHRF1 peptides (synthesized by CanPeptide, 40 nM) in 0.01% Triton X-100, 150 mM NaCl, 20 mM Tris pH 7.5. Polarized emission of FITC-ICP0 or FITC-GMPS or FITC-UHRF1 was measured with a Synergy H4 Hybrid Multi-Mode Microplate Reader (BioTek) with the excitation wavelength set at 485 nm and the emission wavelength set at 528 nm. The competition binding assay was performed with a fixed USP7-CTD concentration (8 μM), 40nM FITC-UHRF1 and increasing concentrations of unlabeled ICP0 (0 to 2500 μM). The polarization data were plotted and analyzed using GraphPad Prism version 5.0 to calculate dissociation (KD) and inhibition (Ki) constants. These assays were repeated at least 3 times and used to calculate the average and standard deviation.

[2] = tested on: USP7 Ubl345; test: Fluorescence polarization, Ubl345; type: binding, human; settings: FITC peptide 40 nM, protein up to 200 μM
Description: as §1

[3] = target: T1, USP7-CTD (Homo sapiens, UniProt Q93009); test: Competition binding assay (fluorescence polarization), FITC-UHRF1 displacement; settings: USP7-CTD 8 μM, FITC-UHRF1 40 nM, unlabeled ICP0 0 to 2500 μM
T1 construct: USP7-CTD (535–1102); His tag (inferred from nickel-NTA purification; vector p15TV-L); made in house; host or cells: E. coli BL21(DE3)mgk
T1 sequence (Q93009 535-1102): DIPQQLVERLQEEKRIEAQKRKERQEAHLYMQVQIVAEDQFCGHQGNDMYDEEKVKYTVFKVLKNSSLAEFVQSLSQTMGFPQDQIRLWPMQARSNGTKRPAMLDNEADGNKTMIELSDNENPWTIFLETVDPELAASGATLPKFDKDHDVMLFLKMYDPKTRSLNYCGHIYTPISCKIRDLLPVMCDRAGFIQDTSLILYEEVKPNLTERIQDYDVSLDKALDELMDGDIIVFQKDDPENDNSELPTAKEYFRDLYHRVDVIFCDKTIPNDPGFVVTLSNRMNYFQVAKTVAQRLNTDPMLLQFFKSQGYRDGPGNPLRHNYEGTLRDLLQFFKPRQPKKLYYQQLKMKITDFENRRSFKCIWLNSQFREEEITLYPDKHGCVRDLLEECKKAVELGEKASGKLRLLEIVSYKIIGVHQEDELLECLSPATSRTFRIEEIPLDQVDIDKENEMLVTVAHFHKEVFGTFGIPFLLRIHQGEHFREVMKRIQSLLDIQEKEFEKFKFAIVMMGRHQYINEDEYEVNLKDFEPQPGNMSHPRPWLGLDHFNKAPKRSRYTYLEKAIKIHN
Description: Given the importance of the KxxxK motif in ICP0 and GMPS for USP7-CTD binding, we examined the UHRF1 sequence for such a motif and identified ^642[…]^649 (Fig 4A). […] The saturation curve is shown in S3 Fig. A competitive binding assay was used to establish whether the UHRF1 and ICP0 peptides were competing for the same binding site on Ubl2. This assay was performed by measuring the fluorescence polarization with increasing amounts of unlabeled ICP0 while keeping both USP7-CTD and FITC-UHRF1 constant. […] This competition was confirmed by the competition binding experiment shown in S3 Fig.
as §1, with “These assays were repeated at least 3 times and used to calculate the average and standard deviation.” left out

[4] = tested on: myc-tagged D762R/D764R (MRGR) USP7; test: Co-immunoprecipitation with myc-tagged D762R/D764R (MRGR) USP7 from 293T cells; type: cell-based, human; settings: anti-myc IP, Western blot, Fig 5
Description: (§2) 293T cells were grown in Dulbecco’s modified Eagle’s medium (DMEM) (Gibco) with 10% fetal calf serum. 293T cells at 70% confluence in a 10-cm-diameter dish were transfected with 10 μg pCANmycUSP7 expressing WT USP7 or D762R/D764R (MRGR) USP7 or with pcDNA3.1 (negative control), in each case using 20 μl PolyJet (SignaGen Laboratories) transfection reagent. Cells were transferred to a 15-cm-diameter dish 24 h post-transfection and harvested 48 h post-transfection. For experiments on USP7-ICP0 interactions, 293T cells were co-transfected with 1 μg pCANmycUSP7 expressing WT or D762R/D764R (MRGR) USP7 and either 1 μg pCI-110 ICP0 or 1 μg pcDNA3.1. For controls lacking USP7, 1 μg pCI-110 ICP0 was co-transfected with 1 μg pcDNA3.1. In each case 4 μl PolyJet (SignaGen Laboratories) transfection reagent was used.
Protein samples were subjected to SDS-PAGE and transferred to nitrocellulose. Membranes were blocked in 5% skim milk in Tris-buffered saline with 1% Tween (TBS-T) and then incubated with antibodies against ICP0 (H1A027 from Virusys Corporation; 1:5000 dilution), myc (sc-40 from Santa Cruz Biotechnology; 1:5000 dilution), NP95/UHRF1 (A301-470A from Bethyl Laboratories; 1:1000 dilution), GMPS (rabbit serum raised against full-length GMPS [17]; 1:5000 dilution) and actin (MA5-15739 from Pierce; 1:20,000 dilution). After washing, blots were probed with goat anti-mouse or goat anti-rabbit peroxidase (Santa Cruz Biotechnology; 1:5000 dilution) and developed using chemiluminescence reagents (Santa Cruz biotechnology).
293T cells transfected as described above were washed in phosphate-buffered saline (PBS) and lysed on ice for 45 min in a 4x volume of RIPA buffer (50 mM Tris-HCl [pH 8], 150 mM NaCl, 0.1% sodium deoxycholate, 0.5% NP-40) with complete protease inhibitors (Sigma P8340), followed by centrifugation. 1 mg of each clarified lysate was incubated with 1 μg of anti-myc antibody for 1h, followed by incubation with 30 μl of A/G PLUS agarose resin (Santa Cruz Biotechnology) for 2 h at 4°C with end-over-end rotation. The resin was harvested by centrifugation, washed in RIPA buffer, and then boiled in SDS loading buffer. Immunoprecipitated proteins were separated by SDS-PAGE and analyzed by Western blotting, as described above.

[5] = tested on: 293T cells; test: ICP0 input levels with and without USP7, Western blot, 293T cells; type: cell-based; settings: input levels of ICP0 with and without USP7, Fig 5A
Description: as §2
Protein samples were subjected to SDS-PAGE and transferred to nitrocellulose. […]
293T cells transfected as described above were washed in phosphate-buffered saline (PBS) and lysed on ice for 45 min in a 4x volume of RIPA buffer (50 mM Tris-HCl [pH 8], 150 mM NaCl, 0.1% sodium deoxycholate, 0.5% NP-40) with complete protease inhibitors (Sigma P8340), followed by centrifugation. […] Immunoprecipitated proteins were separated by SDS-PAGE and analyzed by Western blotting, as described above.

With `C[C@H](NC(=O)[C@H](CS)NC(=O)[C@H](CCCCN)NC(=O)[C@H](CCCNC(=N)N)NC(=O)[C@@H]1CCCN1C(=O)CNC(=O)[C@H](CCCNC(=N)N)NC(=O)[C@@H]1CCCN1)C(=O)N[C@@H](CCCNC(=N)N)C(=O)N[C@@H](CCCCN)C(=O)N[C@H](C(=O)N[C@@H](CCCNC(=N)N)C(=O)N[C@@H](Cc1c[nH]cn1)C(=O)O)[C@@H](C)O` [ICP0 peptide] the “polarization with USP7-NTD” value [1] was “did not show any polarization”, the “polarization with Ubl345” value [2] was “did not show any polarization” and the “competition with UHRF1 peptide for binding to Ubl2” value [3] was “readily competes with the UHRF1 peptide for binding to Ubl2”.
“ICP0: Herpes simplex virus-1 immediate-early protein ICP0, expressed in 293T cells” was tested, and the “recovery with D762R/D764R USP7 (co-IP), in words” value [4] was “decreased (2-fold in multiple experiments) but not abrogated” and the “effect of WT USP7 and D762R/D764R mutant on ICP0 level” value [5] was “stabilizing effect on ICP0”.
